Species on record: Rattus norvegicus
Assay: DrugMatrix - Regimen: Daily Repeat
Type: toxicity, organism-based, Sprague-Dawley
Parameters: regimen Daily Repeat, gender Male, age 6-8 weeks
Conditions: in vivo, iv, vehicle 100 % SALINE; for ABSOLUTE BASOPHIL / ABSOLUTE EOSINOPHIL / ABSOLUTE LYMPHOCYTE / ABSOLUTE MONOCYTE / ABSOLUTE SEGMENTED NEUTROPHIL / BASOPHIL / EOSINOPHIL / ERYTHROCYTE COUNT / HEMATOCRIT / HEMOGLOBIN / LEUKOCYTE COUNT / LYMPHOCYTE / MEAN CORPUSCULAR HEMOGLOBIN / MEAN CORPUSCULAR HEMOGLOBIN CONCENTRATION / MEAN CORPUSCULAR VOLUME / MONOCYTE / NEUTROPHIL / NUCLEATED RED BLOOD CELLS / PLATELET COUNT: tissue Blood; for ALANINE AMINOTRANSFERASE / ALBUMIN / ALKALINE PHOSPHATASE / ASPARTATE AMINOTRANSFERASE / BLOOD UREA NITROGEN / CARBON DIOXIDE / CHLORIDE / CHOLESTEROL / CREATINE PHOSPHOKINASE / CREATININE / GLUCOSE / LACTATE DEHYDROGENASE / LIPASE / PHOSPHORUS / POTASSIUM / SODIUM / TOTAL BILIRUBIN / TOTAL PROTEIN: tissue Plasma
[1] = 1 mg/kg, 72 h, dose level Low, time 3 day
[2] = 1 mg/kg, 120 h, dose level Low, time 5 day
[3] = 76 mg/kg, 72 h, dose level High, time 3 day
[4] = 76 mg/kg, 120 h, dose level High, time 5 day

SMILES: C=CCN1CC[C@]23c4c5ccc(O)c4O[C@H]2C(=O)CC[C@@]3(O)[C@H]1C5 [NALOXONE]
- ABSOLUTE BASOPHIL [1]: 0 CELLS/uL
- ABSOLUTE EOSINOPHIL [1]: 394 CELLS/uL
- ABSOLUTE LYMPHOCYTE [1]: 14212 CELLS/uL
- ABSOLUTE MONOCYTE [1]: 229.67 CELLS/uL
- ABSOLUTE SEGMENTED NEUTROPHIL [1]: 1597.67 CELLS/uL
- BASOPHIL [1]: 0%
- EOSINOPHIL [1]: 2.33%
- ERYTHROCYTE COUNT [1]: 5.29 x10E6/uL
- HEMATOCRIT [1]: 33.37%
- HEMOGLOBIN [1]: 12.43 G/DL
- LEUKOCYTE COUNT [1]: 16.43 x10E3/uL
- LYMPHOCYTE [1]: 86.33%
- MEAN CORPUSCULAR HEMOGLOBIN [1]: 23.5 pg
- MEAN CORPUSCULAR HEMOGLOBIN CONCENTRATION [1]: 37.23 G/DL
- MEAN CORPUSCULAR VOLUME [1]: 63.13 fL
- MONOCYTE [1]: 1.33%
- NEUTROPHIL [1]: 10%
- NUCLEATED RED BLOOD CELLS [1]: 0 /100WBC
- PLATELET COUNT [1]: 1087.33 x10E3/uL
- ALANINE AMINOTRANSFERASE [1]: 52 u/L
- ALBUMIN [1]: 4.2 G/DL
- ALKALINE PHOSPHATASE [1]: 368.67 u/L
- ASPARTATE AMINOTRANSFERASE [1]: 96 u/L
- BLOOD UREA NITROGEN [1]: 16.33 mg/dL
- CARBON DIOXIDE [1]: 26.67 mmol/L
- CHLORIDE [1]: 103.67 MEQ/L
- CHOLESTEROL [1]: 70.67 mg/dL
- CREATINE PHOSPHOKINASE [1]: 678.67 u/L
- CREATININE [1]: 0.2 mg/dL
- GLUCOSE [1]: 178.33 mg/dL
- LACTATE DEHYDROGENASE [1]: 116.67 u/L
- LIPASE [1]: 9.67 u/L
- PHOSPHORUS [1]: 12.63 mg/dL
- POTASSIUM [1]: 6.32 MEQ/L
- SODIUM [1]: 144.23 MEQ/L
- TOTAL BILIRUBIN [1]: 0.2 mg/dL
- TOTAL PROTEIN [1]: 5.9 G/DL
- ABSOLUTE BASOPHIL [2]: 0 CELLS/uL
- ABSOLUTE EOSINOPHIL [2]: 66.67 CELLS/uL
- ABSOLUTE LYMPHOCYTE [2]: 9301.33 CELLS/uL
- ABSOLUTE MONOCYTE [2]: 105.67 CELLS/uL
- ABSOLUTE SEGMENTED NEUTROPHIL [2]: 1026.33 CELLS/uL
- BASOPHIL [2]: 0%
- EOSINOPHIL [2]: 0.67%
- ERYTHROCYTE COUNT [2]: 5.74 x10E6/uL
- HEMATOCRIT [2]: 35.87%
- HEMOGLOBIN [2]: 13.53 G/DL
- LEUKOCYTE COUNT [2]: 10.5 x10E3/uL
- LYMPHOCYTE [2]: 88.67%
- MEAN CORPUSCULAR HEMOGLOBIN [2]: 23.57 pg
- MEAN CORPUSCULAR HEMOGLOBIN CONCENTRATION [2]: 37.73 G/DL
- MEAN CORPUSCULAR VOLUME [2]: 62.5 fL
- MONOCYTE [2]: 1%
- NEUTROPHIL [2]: 9.67%
- NUCLEATED RED BLOOD CELLS [2]: 0.33 /100WBC
- PLATELET COUNT [2]: 1255.33 x10E3/uL
- ALANINE AMINOTRANSFERASE [2]: 45.67 u/L
- ALBUMIN [2]: 4.1 G/DL
- ALKALINE PHOSPHATASE [2]: 363 u/L
- ASPARTATE AMINOTRANSFERASE [2]: 88.67 u/L
- BLOOD UREA NITROGEN [2]: 15.67 mg/dL
- CARBON DIOXIDE [2]: 25 mmol/L
- CHLORIDE [2]: 106 MEQ/L
- CHOLESTEROL [2]: 63.67 mg/dL
- CREATINE PHOSPHOKINASE [2]: 400.33 u/L
- CREATININE [2]: 0.18 mg/dL
- GLUCOSE [2]: 177.67 mg/dL
- LACTATE DEHYDROGENASE [2]: 358 u/L
- LIPASE [2]: 8.33 u/L
- PHOSPHORUS [2]: 12.67 mg/dL
- POTASSIUM [2]: 6.28 MEQ/L
- SODIUM [2]: 144.83 MEQ/L
- TOTAL BILIRUBIN [2]: 0.23 mg/dL
- TOTAL PROTEIN [2]: 6.2 G/DL
- ABSOLUTE BASOPHIL [3]: 0 CELLS/uL
- ABSOLUTE EOSINOPHIL [3]: 219 CELLS/uL
- ABSOLUTE LYMPHOCYTE [3]: 13357.67 CELLS/uL
- ABSOLUTE MONOCYTE [3]: 239.33 CELLS/uL
- ABSOLUTE SEGMENTED NEUTROPHIL [3]: 1117.33 CELLS/uL
- BASOPHIL [3]: 0%
- EOSINOPHIL [3]: 1.33%
- ERYTHROCYTE COUNT [3]: 5.83 x10E6/uL
- HEMATOCRIT [3]: 36.57%
- HEMOGLOBIN [3]: 14.13 G/DL
- LEUKOCYTE COUNT [3]: 14.93 x10E3/uL
- LYMPHOCYTE [3]: 89.67%
- MEAN CORPUSCULAR HEMOGLOBIN [3]: 24.23 pg
- MEAN CORPUSCULAR HEMOGLOBIN CONCENTRATION [3]: 38.67 G/DL
- MEAN CORPUSCULAR VOLUME [3]: 62.73 fL
- MONOCYTE [3]: 1.67%
- NEUTROPHIL [3]: 7.33%
- NUCLEATED RED BLOOD CELLS [3]: 0 /100WBC
- PLATELET COUNT [3]: 1424 x10E3/uL
- ALANINE AMINOTRANSFERASE [3]: 46.67 u/L
- ALBUMIN [3]: 4.23 G/DL
- ALKALINE PHOSPHATASE [3]: 304.67 u/L
- ASPARTATE AMINOTRANSFERASE [3]: 92.33 u/L
- BLOOD UREA NITROGEN [3]: 15.67 mg/dL
- CARBON DIOXIDE [3]: 24.33 mmol/L
- CHLORIDE [3]: 110.67 MEQ/L
- CHOLESTEROL [3]: 46 mg/dL
- CREATINE PHOSPHOKINASE [3]: 383.33 u/L
- CREATININE [3]: 0.12 mg/dL
- GLUCOSE [3]: 104 mg/dL
- LACTATE DEHYDROGENASE [3]: 123 u/L
- LIPASE [3]: 7.67 u/L
- PHOSPHORUS [3]: 14.33 mg/dL
- POTASSIUM [3]: 5.64 MEQ/L
- SODIUM [3]: 148.07 MEQ/L
- TOTAL BILIRUBIN [3]: 0.1 mg/dL
- TOTAL PROTEIN [3]: 6.3 G/DL
- ABSOLUTE BASOPHIL [4]: 0 CELLS/uL
- ABSOLUTE EOSINOPHIL [4]: 118.67 CELLS/uL
- ABSOLUTE LYMPHOCYTE [4]: 15030.67 CELLS/uL
- ABSOLUTE MONOCYTE [4]: 170.67 CELLS/uL
- ABSOLUTE SEGMENTED NEUTROPHIL [4]: 1746.67 CELLS/uL
- BASOPHIL [4]: 0%
- EOSINOPHIL [4]: 0.67%
- ERYTHROCYTE COUNT [4]: 5.72 x10E6/uL
- HEMATOCRIT [4]: 35.6%
- HEMOGLOBIN [4]: 13.43 G/DL
- LEUKOCYTE COUNT [4]: 17.07 x10E3/uL
- LYMPHOCYTE [4]: 88%
- MEAN CORPUSCULAR HEMOGLOBIN [4]: 23.53 pg
- MEAN CORPUSCULAR HEMOGLOBIN CONCENTRATION [4]: 37.77 G/DL
- MEAN CORPUSCULAR VOLUME [4]: 62.37 fL
- MONOCYTE [4]: 1%
- NEUTROPHIL [4]: 10.33%
- NUCLEATED RED BLOOD CELLS [4]: 0 /100WBC
- PLATELET COUNT [4]: 1344.67 x10E3/uL
- ALANINE AMINOTRANSFERASE [4]: 49.67 u/L
- ALBUMIN [4]: 4.07 G/DL
- ALKALINE PHOSPHATASE [4]: 305 u/L
- ASPARTATE AMINOTRANSFERASE [4]: 80.33 u/L
- BLOOD UREA NITROGEN [4]: 13.67 mg/dL
- CARBON DIOXIDE [4]: 26.33 mmol/L
- CHLORIDE [4]: 105 MEQ/L
- CHOLESTEROL [4]: 52.33 mg/dL
- CREATINE PHOSPHOKINASE [4]: 250.33 u/L
- CREATININE [4]: 0.19 mg/dL
- GLUCOSE [4]: 172.67 mg/dL
- LACTATE DEHYDROGENASE [4]: 79 u/L
- LIPASE [4]: 8 u/L
- PHOSPHORUS [4]: 12.5 mg/dL
- POTASSIUM [4]: 6.34 MEQ/L
- SODIUM [4]: 144.67 MEQ/L
- TOTAL BILIRUBIN [4]: 0.13 mg/dL
- TOTAL PROTEIN [4]: 6.03 G/DL

From ChEMBL document CHEMBL3885881, “DrugMatrix”
